For test [1], the system named is P-388. The test is described as follows: IC50 growth inhibition, P-388 suspension culture. Type of test: cell-based, DBA/2 mouse. Particulars: Mus musculus, P388, 72 h, three days, 37° C., 10% CO2, approximate IC50, in duplicate. The protocol:
(§1) Cell cultures: The cells were kept in logarithmic phase of growth in Eagle's Minimum Essential Medium, with Earle's Balanced Salts, with L-gluatamine 2.0 mM, with non-essential amino acids and without sodium bicarbonate (EMEM-NEAA); supplemented with Fetal Calf Serum (FCS) 10% sodium bicarbonate 10^-2 and with 0.1 g/l penicillin-G+-streptomycin sulfate.
(§2) To determine and to compare the antitumor activity of these compounds, a simple screening process was carried out using an adapted form of the method described by Bergeron et al. (1984) ((1) Raymond J. Bergeron, Paul F. Cavanaugh, Jr., Steven J. Kline, Robert G. Hughes, Jr., Gary T. Elliot and Carl W. Porter. Antineoplastic and antiherpetic activity of spermidine catecholamide iron chelators. Biochem. Bioph. Res. Comm. 1984, 121 (3), 848-854; (2) Alan C. Schroeder, Robert G. Hughes, Jr. and Alexander Bloch. Effects of Acyclic pyrimidine nucleoside analogues. J. Med. Chem. 1981, 24, 1078-1083). The antitumor cells used have been P-388 (culture in DBA/2 mouse lymphoid neoplasm suspension), A-549 (human lung carcinoma monolayer culture); HT-29 human colon carcinoma monolayer culture) and MEL (human melanoma monolayer culture).
The P-388 cells were seeded in 16 mm cups at 1×10^4 cells per cup in aliquots at 1 ml. MEM 5FCS that contains the indicated drug concentration. Separately, a batch of cultures without any drug was seeded as a growth control to ensure that the cells were kept in a logarithmic phase of growth. All the determinations were carried out in duplicate. After three days of incubation at 37° C., 10% CO2 in an atmosphere with 98% humidity, the approximate IC50 was determined by comparing the growth in the cups with the drug and the control cups.

Test [2] concerns A-549. Kind of test: IC50 growth inhibition, A-549 monolayer culture (crystal violet). It is filed as cell-based. The note with it: Homo sapiens, A549, 72 h, three days, 37° C., 10% CO2, crystal violet 0.1%, approximate IC50, in duplicate. The protocol:
as §1, §2
(§3) The A-549, HT-29 and MEL-28 cells were seeded in 16 mm cups at […] cells per cup in aliquots of […] of MEM 10FCS that contain the indicated drug concentration. Separately, a batch of cultures without any drug was seeded as a growth control to ensure that the cells were kept in a logarithmic phase of growth. All the determinations were carried out in duplicate. After three days of incubation at 37° C., 10% CO2 in an atmosphere with 98% humidity, the cups were stained with crystal violet 0.1%. The approximate IC50 was determined by comparing the growth in the cups with the drug and the growth in the control cups.

For test [3], the system named is HT-29. Kind of test: IC50 growth inhibition, HT-29 monolayer culture (crystal violet). It is filed as cell-based. The note with it: Homo sapiens, 72 h, three days, 37° C., 10% CO2, crystal violet 0.1%, approximate IC50, in duplicate. The protocol: as §1, §2, §3
Test [4] relates to MEL-28. Kind of test: IC50 growth inhibition, MEL-28 monolayer culture (crystal violet). Type of test: cell-based. Particulars: Homo sapiens, SK-MEL-28, 72 h, three days, 37° C., 10% CO2, crystal violet 0.1%, approximate IC50, in duplicate. The protocol: as §1, §2, §3
In test [5] the test system is Gram positive bacteria. Particulars: cited from earlier work.
The test system of test [6] is thymidilate synthetase. The note with it: cited from earlier work.

Converted amounts (≈) assume the structure as drawn. Bounds are passed on as bounds.

For `Cc1cc(=O)[nH]c2c1C(=O)c1cc(C)c(=O)[nH]c1C2=O` [(I-h), 3,5-dimethyl-1,8-dihydro-1,8-diazaanthracen-2,7,9,10-tetraone], the IC50 in test [1] came to 0.05 µg/mL (≈ 0.185 µM); in test [2], 0.05 µg/mL (≈ 0.185 µM); in test [3] it was 0.05 µg/mL (≈ 0.185 µM); in test [4] it was 0.025 µg/mL (≈ 0.0925 µM).
As to `O=C1c2cc(F)cnc2C(=O)c2ncc(F)cc21` [(I-i), 3,6-difluoro-1,8-diazaanthracen-9,10-dione], the IC50 in test [1] came out at 0.025 µg/mL (≈ 0.102 µM); in test [2], 0.1 µg/mL (≈ 0.406 µM); in test [3], 0.1 µg/mL (≈ 0.406 µM); in test [4], 0.025 µg/mL (≈ 0.102 µM).
In the case of `CCc1cc2c([nH]c1=O)C(=O)c1[nH]c(=O)cc(C)c1C2=O` [(I-c)], the IC50 in test [1] worked out at 0.1 µg/mL (≈ 0.352 µM); in test [2], 0.025 µg/mL (≈ 0.0879 µM); in test [3], 0.1 µg/mL (≈ 0.352 µM); in test [4], 0.1 µg/mL (≈ 0.352 µM).
For the compound `CCCc1c2c([nH]c(=O)c1C)C(=O)c1[nH]c(=O)c(C)c(CCC)c1C2=O` [Diazaquinomycin A], the “activity against Gram positive bacteria” value in test [5] is reported as “goods activity against Gram positive bacteria”. For the same compound, the “capacity to inhibit thymidilate synthetase” value in test [6] is on record as “capacity to inhibit thymidilate synthetase”.
As to `CC1C(F)=CNC2=C1C(=O)c1ccccc1C2=O` (stereo not shown) [(I-k), 3-fluoro-4-methyl-1,4-dihydro-1-azaanthracen-9,10-dione], the IC50 in test [1] was found to be 0.25 µg/mL (≈ 1.03 µM); in test [2], 0.25 µg/mL (≈ 1.03 µM); in test [3] it was 0.25 µg/mL (≈ 1.03 µM); in test [4], 0.12 µg/mL (≈ 0.493 µM).
On to `Cc1cc(=O)[nH]c2c1C(=O)c1cc(N(C)C)cnc1C2=O` [(I-f), 6-dimethylamino-4-methyl-1H-1,8-diazaanthracen-2,9,10-trione], for which the IC50 in test [1], in test [2], in test [3] and in test [4] was 0.02 µg/mL (≈ 0.0706 µM) in each case.
Turning to `CC(=O)c1cc2c([nH]c1=O)C(=O)c1ncc(C)cc1C2=O` [(I-d)], the IC50 amounted to 1 µg/mL (≈ 3.54 µM) in test [1], 0.25 µg/mL (≈ 0.886 µM) in test [2], 1 µg/mL (≈ 3.54 µM) in test [3] and 0.25 µg/mL (≈ 0.886 µM) in test [4].
As to `CC1=C(C)CC2C(=O)c3c(C)cc(=O)[nH]c3C(=O)C2C1` (stereo not shown) [(I-a), 4,6,7-trimethyl-5,8,8a,10a-tetrahydro-1H-1-azaathracen-2,9,10-trione], the IC50 is 1 µg/mL (≈ 3.69 µM) in test [1], 0.25 µg/mL (≈ 0.921 µM) in test [2] and 1 µg/mL (≈ 3.69 µM) in test [3].
For `O=C1c2ccccc2C(=O)c2ncc(F)cc21` [(I-l), 3-fluoro-1-azaanthracen-9,10-dione], the half-maximal inhibitory concentration (IC50) in test [1] amounted to 0.25 µg/mL (≈ 1.1 µM); in test [2], 0.05 µg/mL (≈ 0.22 µM); in test [3], 0.25 µg/mL (≈ 1.1 µM); in test [4], 0.05 µg/mL (≈ 0.22 µM).
As for `Cc1cnc2c(c1)C(=O)c1cc(-c3ccccc3)c(=O)[nH]c1C2=O` [(I-j), 6-methyl-3-phenyl-1H-1,8-diazaanthracen-2,9,10-trione], the IC50 in test [1] is 2.5 µg/mL (≈ 7.9 µM); in test [2], 5 µg/mL (≈ 15.8 µM); in test [3], 10 µg/mL (≈ 31.6 µM); in test [4] it was over 10 µg/mL.
With `Cc1cc(=O)[nH]c2c1C(=O)c1cc(F)cnc1C2=O` [(I-e), 6-fluoro-4-methyl-1H,1,8-diazaanthracen-2,9,10-trione], the concentration for half-maximal inhibition (IC50) in test [1] came to 0.005 µg/mL (≈ 0.0194 µM); in test [2], 0.02 µg/mL (≈ 0.0775 µM); in test [3], 0.05 µg/mL (≈ 0.194 µM); in test [4] it was 0.05 µg/mL (≈ 0.194 µM).
With `Cc1cc(=O)[nH]c2c1C(=O)C1=C(NC=CC1c1ccccc1[N+](=O)[O-])C2=O` (stereo not shown) [(I-g), 4-methyl-5-(2-nitrophenyl)-5,8-dihydro-1H-1,8-diazaanthracen-2,9,10-trione], the IC50 in test [1] was determined as 0.5 µg/mL (≈ 1.38 µM); in test [2] it was 0.05 µg/mL (≈ 0.138 µM); in test [3], 0.05 µg/mL (≈ 0.138 µM); in test [4], 0.1 µg/mL (≈ 0.275 µM).
Regarding `CCOc1nc2c(cc1C)C(=O)c1ccccc1C2=O` [(I-b), 2-ethoxy-3-methyl-1-azaanthracen-9,10-dione], the half-maximal inhibitory concentration (IC50) turned out to be 5 µg/mL (≈ 18.7 µM) in test [1], 0.25 µg/mL (≈ 0.935 µM) in test [2], 10 µg/mL (≈ 37.4 µM) in test [3] and 5 µg/mL (≈ 18.7 µM) in test [4].

As a reminder, the IC50 is the concentration needed to halve the response being measured. Low values mean inhibition by little substance, high ones a need for much substance.

The values above are taken from US5716963A, “Anthraquinonic derivatives having an antitumor activity and applications thereof” (Universidad Complutense De Madrid, priority 1994, dated 1998).
